This is an account of results in patent publication US20210128537A1, “T-TYPE CALCIUM CHANNEL MODULATORS AND METHODS OF USE THEREOF” (Praxis Precision Medicines, inc., priority 2016, published 2021).

The subject of series [1] is GAERS nRT neuron. Kind of series: Thalamic slice current-clamp recordings, burst firing in nRT neurons. The class given is cell-based, rat. Particulars: 1 mM Z944; for voltage response to depolarizing current, low threshold spiking: in 600 nM TTX.
For series [2], the system named is GAERS (genetic rat model of GGE with absence seizures). Nature of the series: Systemic administration in GAERS, EEG spike-and-wave discharges. Conditions: 30 mg/kg intraperitoneal; shift from 8 Hz with ethosuximide 100 mg/kg and vehicle. The format is in vivo. Here is the method: In vivo anti-seizure activity of Z941 and Z944 was assessed in eight female epileptic GAERS (180 to 250 g and 18 to 26 weeks). Rats were implanted with extradural recording electrodes. EEG data were acquired at a sampling rate of 256 Hz unfiltered using Compumedics ProFusion digital EEG acquisition software. After 60-min habituation, rats received intraperitoneal injections of drug, and after a further 15 min, the EEG was acquired for 120 min—the test period. […] Over a 5-week period, each rat received all treatments (crossover design) in a randomized manner with a 48-hour washout period between dosing of test compound, control vehicle, and positive control articles. […] Clinical observations of neurotoxic adverse effects were assessed every 15 min throughout the 120-min test period. These were quantified according to an ordinal scale of 0 to 4: 0, no sedation, normal movement; 1, slight sedation, slow movement but alert when startled; 2, mildly sedate, reduced struggle to restraint; 3, sedate, not moving in cage, but does respond to provocation; 4, very sedate, catatonic and unable to stand when provoked. The eight scores (taken for one experiment per rat) were then averaged, and group means were calculated for each treatment. Animals were also monitored daily for general health throughout the study period (that is, weight gain and fur condition). […]

Series [3] has as its system Wistar rats, amygdala kindling. Kind of series: Progression of seizures in the amygdala kindling model. The format is in vivo, rat. As for the experimental part: Animals were implanted with EEG recording electrodes and with a stimulating bipolar electrode in the left basolateral amygdaloid nucleus using the coordinates AP±3.0 mm, ML±5.9 mm, DV±6.0 mm. The after discharge threshold (ADT) for each animal was determined by administering a stimulation (frequency=60.1 Hz; duration=1000 μs) at one minute intervals until a seizure was clicited. The amplitude of the stimulation was started at 0.02 mA with increments of 0.02 mA; the stimulations were stopped when the animal experienced a seizure of ≥6 second duration, or if the amplitude of 0.40 mA was reached without the occurrence of a seizure. […] Kindling was performed twice a day for five days per week with an endpoint of 30 stimulations or until the animal presented five class V seizures (referred to as fully kindled). The seizure severity was classified from 0 (less severe) to V (most severe) according to the Racine Scale (Racine, 1972b). Sham kindled animals were handled the same way as the kindled animals, although no electrical stimulation was applied. An animal is classified as fully kindled once it has experienced 5 class V seizures.
Testing Z944 in the progression of seizures in the amygdala kindling model Wistar rats underwent surgery to implant bipolar stimulation electrodes and EEG recording electrodes as described above. ADT was determined as described for the anti-seizure study. Animals were randomly assigned to four different cohorts; Cohort 1: kindled sham+vehicle (n=8); Cohort 2: kindled+vehicle (n=6); Cohort 3: kindled+ETX (100 mg/kg, n=6) and Cohort 4: kindled+Z944 (30 mg/kg, n=7). Thirty minutes prior each kindling stimulation, the animals received an IP injection of vehicle, ETX, or Z944 administered at a dose volume of 5 ml/kg up to an endpoint of 30 stimulations and the seizure class elicited and seizure duration was recorded. […] Adverse effects were recorded every 15 minutes from the drug administration until 90 minutes after. An investigator blinded to the drug treatment analyzed all EEG recordings. The seizure class each stimulation elicited was recorded and averaged and the duration of the primary and total seizures were recorded.

In series [4] the test system is post-SE rats. Nature of the series: Kainic acid induced post-status epilepticus model, video-EEG seizure analysis. The class given is in vivo, rat. Here is the method:
Pumps were filled with either Z944 to deliver a daily dose of 60 mg/kg, levetiracetam to deliver a daily dose of 200 mg/kg or vehicle. For the drug tolerability study, osmotic pumps continuously either Z944, levetiracetam or vehicle for 7 days and for the post-SE study osmotic pumps delivered continuously the different treatments for 28 days.
FIG. 11 summarizes the different methods used on this experimental paradigm.
Animals were implanted with subdural EEG recording electrodes and one week after surgery, the animals were connected using cables that allowed them free movement around their cage. A repeated low dose KA administration protocol was used. Rats were injected i.p. with an initial dose of KA 7.5 mg/kg plus 3 ml of normal saline to prevent dehydration. Animals were monitored for 45 minutes for EEG and behavioural seizures based on the Racine scale. […] This was repeated up to 2 times every 45 minutes. An animal was eliminated from the experiment if it didn't show a stable self-sustained SE after a maximum KA total dose of 15 mg/kg. Two sham groups were treated identically but received saline injections instead of KA. After four hours of sustained electroencephalographic and behavioural seizures the animals were randomly allocated to one of the five treatment groups: sham+vehicle (n=6), sham+Z944 (n=6), post-SE+vehicle (n=8), post-SE+Z944 (n=8), post-SE+levetiracetam (n=9).
Animals were anesthetized and implanted with subcutaneous osmotic pumps containing either vehicle Z944 (60 mg/kg/day), or levetiracetam (200 mg/kg/day) that delivered the treatment continuously for 4 weeks. Immediately after the pump implantation, SE was stopped with diazepam (5 mg/kg/dose).
vEEG recordings commenced at least 4 h prior the induction of SE to provide baseline recordings. The video-EEG recordings continued for the whole duration of the treatment period, i.e. four weeks after the termination of the SE. […] EEG analysis was performed in a blinded manner and confirmed by two different observers. All EEG recordings were visually and manually annotated using Profusion 3 software. A seizure was defined as an episode of rhythmic spiking activity that was three times the baseline amplitude and a frequency >5 Hz that lasted at least 10 s. The end of a seizure was determined as the last spike. The average number of seizures per day, average seizure duration and seizure class (severity) were analysed.

With `CC(C)(C)NC(=O)CN1CCC(CNC(=O)c2cc(F)cc(Cl)c2)CC1` [Z944], the “voltage response to depolarizing current, burst firing” value is listed as “subthreshold for firing” in series [1] (+80 pA (threshold for burst firing in control)) and “threshold for tonic firing” in series [1] (+120 pA (suprathreshold for burst firing in control)). Also, the “voltage response to depolarizing current, low threshold spiking” value in series [1] (+100 pA) is “subthreshold for low-threshold spiking”; in series [1] (+190 pA (suprathreshold in control)), “still subthreshold”. Also, the “peak cycle frequency power during seizure activity (FFT)” value in series [2] came out at 6.5 Hz. Moreover, the “number of stimulations to evoke a class III, IV or V seizure” value in series [3] (30 mg/kg IP 30 min prior each stimulation, vs vehicle) is listed as “required significantly more stimulations”. In addition, the “number of treated animals that reached the fully kindled state” value in series [3] (30 mg/kg IP, n=7, up to 30 stimulations) is recorded as “one”. The “number of stimulations to reach class V” value in series [3] (30 mg/kg IP, vs ETX 100 mg/kg (p<0.01)) is recorded as “required more stimulations”. Also, in series [3] (30 mg/kg IP, vs vehicle (p<0.01) and ETX (p<0.05)), the “number of stimulations to reach the fully kindled state” value was “required significantly more stimulations”. In addition, in series [4] (60 mg/kg/day for 4 weeks, EEG after 4 weeks from drug washout), the “seizures on EEG after drug washout (seizures per day, duration, severity)” value is “Anti-Epileptogenic”. Further, in series [4] (60 mg/kg/day, during the 4 weeks of continuous treatment after SE), the “seizures on EEG during treatment (seizures per day, duration, severity)” value is given as “Anti-Epileptogenic Effects”. Moreover, the “number of seizures in each animal that developed seizures” value in series [4] (in two weeks of vEEG after drug washout) was “one”. In addition, the “neurological adverse effects after prolonged treatment” value in series [4] (osmotic pump 4 weeks, Z944 60 mg/kg/day, levetiracetam 200 mg/kg/day) was “only transient and minor neurological adverse effects”. For the same molecule, the “treated animals that developed seizures” value in series [4] (two weeks of vEEG after 4 weeks drug washout, n=8) is reported as “two of the eight”.
